Where a name gives a salt, the structure may show the parent alone.
How the values were obtained:
[1] = target: T1, GPX4 (Homo sapiens, UniProt P36969); assay: GR-coupled GPX4 activity assay (NADPH fluorescence, CHP substrate); assay type: biochemical; settings: Fig. 9 pan-selenoprotein inhibitors
T1 construct: made in house; host or cells: E. coli
T1 sequence (P36969 1-170 isoform P36969-2): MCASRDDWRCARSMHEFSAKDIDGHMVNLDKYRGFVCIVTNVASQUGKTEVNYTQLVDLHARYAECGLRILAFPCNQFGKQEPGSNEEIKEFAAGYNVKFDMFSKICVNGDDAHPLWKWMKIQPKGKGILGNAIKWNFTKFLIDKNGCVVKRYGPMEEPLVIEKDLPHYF
Procedure: (§1) The compound plates were prepared as described previously. Purified recombinant human GPX1, GPX2, GPX4, GR, and TXNRD1 were produced and purified as previously reported [[48], [49], [50]]. As production of GPX2 was not optimized at the onset of screening, only GPX1 and GPX4 underwent library screening, and GPX2 was used as a follow-up.
(§2) Follow-up and orthogonal assays were run in quadruplicate unless otherwise stated. Assay schemes are illustrated in Fig. 1.
(§3) To measure GPX activity, assays were performed in 1536-well format in black medium-binding solid-bottom plates (Greiner). These assay conditions were optimized for high-throughput screening from an assay first described by Paglia and Valentine. GPX activity is measured indirectly by coupling the reaction with GR whereby GPX reduces hydroperoxide by oxidizing two GSH to GSSG and the oxidized glutathione is recycled to its reduced state by GR and NADPH (Fig. 1B). The rate of consumption of NADPH is directly proportional to the activity of GPX and can be measured by the decrease in fluorescence at 340 nm/450 nm.
(§4) First, 3 μL of enzyme in TES assay buffer (50 mM Tris-HCl, 2 mM EDTA (pH 7.5), 150 mM NaCl with enzyme [10 nM GPX1, 200 nM GPX4 ] and BSA [0.01%]) was added to columns 3–48 of 1536-well plates using a BioRAPTR Flying Reagent Dispenser (Let's Go Robotics (LGR), Carlsbad, CA). A no-enzyme control (0.01% BSA in TES assay buffer) was added to columns 1–2. Compounds (25 nL, library and DMSO controls) were added to each well with a pin tool (Kalypsys), and the plates were incubated for 30 min at room temperature before 1 μL of master mix (100 nM GR, 1 mM GSH, 0.5 mM NADPH in TES buffer) was added. 1 μL of cumene hydroperoxide (CHP) ([0.5 mM] in 50% EtOH) was then added within 5 min to initiate the reaction. Fluorescence at 340/450 nm was measured using a ViewLux multimodal detector (PerkinElmer, Waltham, MA) at initial t = 0 and endpoint t = 15 min (GPX1) or t = 20 min (GPX4).
(§5) Follow-up confirmation assays were also run in 96-well format using medium binding clear 96-well SpectraPlate microplates (PerkinElmer) and NADPH absorbance at 340 nm was measured every 30 s for 30 min using an Infinite® M Nano (Tecan).
(§6) Percent activity was determined by first calculating delta RFU (decrease in fluorescence between t = 0 and t = 20/30 min in primary GPX, GR counter-screen, and TXNRD1 assays, or increase in fluorescence between t = 0 and t = 20 min in the Monobromobimane GPX endpoint assay), and normalizing enzyme activity using median delta RFU values for DMSO-treated enzyme control, and DMSO-treated no-enzyme controls.
(§7) Compound inhibitory activity in the qHTS assays was determined by plotting dose-response data for each sample and fitting with a four-parameter logistic fit to assess IC50 values, efficacy (maximal response), and AUC (area under the curve), as previously described. Hits were classified by the quality of the concentration-response curves (CRC). Curve classes −1.1 and −1.2 being the highest-confidence actives with complete CRCs and classes −2.1 and −2.2 being lower-confidence actives with incomplete CRCs.

[2] = target: T2, human GPX2 (Homo sapiens, UniProt P18283); assay: GPX2 activity assay (follow-up isoform specificity); assay type: biochemical; settings: for inhibition of GPX2: Fig. 9 pan-selenoprotein inhibitors; for IC50: IC50 of resulting CRC, Table 2
T2 construct: made in house
T2 sequence (P18283 1-190): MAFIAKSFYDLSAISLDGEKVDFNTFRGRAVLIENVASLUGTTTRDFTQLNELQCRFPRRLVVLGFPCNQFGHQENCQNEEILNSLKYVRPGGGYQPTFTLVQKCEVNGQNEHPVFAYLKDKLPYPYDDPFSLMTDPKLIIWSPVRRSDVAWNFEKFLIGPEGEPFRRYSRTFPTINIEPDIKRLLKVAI
Procedure: as §1, §2
Previous work has shown similarities in the substrate specificities of GPX1 and GPX2, and a more unique substrate profile of GPX4 [8].
The GPX2 isoform of human selenoprotein GPXs is found in epithelial cells and has similar substrate specificity with GPX1, but not as much with GPX4 [8]. Additionally, GPX1 and GPX2 both form homotetramers and share similarities in structural homology, although GPX2 has a much slower turnover rate.

[3] = target: T3, human TXNRD1 (Homo sapiens, UniProt Q16881); assay: Thioredoxin reductase 1 (TXNRD1) inhibition assay (selenite reduction); assay type: biochemical; settings: Fig. 9 pan-selenoprotein inhibitors
T3 construct: made in house
T3 sequence (Q16881 1-499 isoform Q16881-5): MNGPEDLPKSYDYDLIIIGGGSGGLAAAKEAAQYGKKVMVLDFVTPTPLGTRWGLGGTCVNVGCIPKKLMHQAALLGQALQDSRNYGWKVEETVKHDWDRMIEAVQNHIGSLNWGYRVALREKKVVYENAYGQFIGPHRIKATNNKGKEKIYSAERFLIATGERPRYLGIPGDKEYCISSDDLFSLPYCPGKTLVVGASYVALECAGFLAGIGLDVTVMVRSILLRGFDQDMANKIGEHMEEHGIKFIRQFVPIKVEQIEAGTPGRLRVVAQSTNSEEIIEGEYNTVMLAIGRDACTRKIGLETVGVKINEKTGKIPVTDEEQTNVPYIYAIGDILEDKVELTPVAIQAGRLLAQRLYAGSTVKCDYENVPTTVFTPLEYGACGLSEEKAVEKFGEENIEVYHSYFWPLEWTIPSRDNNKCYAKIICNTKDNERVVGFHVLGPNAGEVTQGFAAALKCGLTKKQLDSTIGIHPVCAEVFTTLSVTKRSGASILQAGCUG
Procedure: as §1, §2
TXNRD1 activity was assessed using a modified 1536-well TXNRD1 inhibition assay, based upon TXNRD1-catalyzed selenite reduction as previously described (Fig. 1D). […] TE buffer was dispensed into column 1 and 2 as a no-enzyme control. Finally, 1 μL of sodium selenite in TE buffer was dispensed into each well for final concentrations of 90 nM hTXNRD1, 0.4 mM NADPH, and 0.4 mM sodium selenite. The plate was read in a Viewlux multimodal detector in kinetic mode and fluorescence at 340 nm/450 nm was measured every minute for 8 min.
as §6, §7

[4] = target: T4, GR (glutathione reductase) (Homo sapiens, UniProt P00390); assay: GR counter-assay; assay type: biochemical; settings: Fig. 9 pan-selenoprotein inhibitors
T4 construct: made in house
T4 sequence (P00390 44-522): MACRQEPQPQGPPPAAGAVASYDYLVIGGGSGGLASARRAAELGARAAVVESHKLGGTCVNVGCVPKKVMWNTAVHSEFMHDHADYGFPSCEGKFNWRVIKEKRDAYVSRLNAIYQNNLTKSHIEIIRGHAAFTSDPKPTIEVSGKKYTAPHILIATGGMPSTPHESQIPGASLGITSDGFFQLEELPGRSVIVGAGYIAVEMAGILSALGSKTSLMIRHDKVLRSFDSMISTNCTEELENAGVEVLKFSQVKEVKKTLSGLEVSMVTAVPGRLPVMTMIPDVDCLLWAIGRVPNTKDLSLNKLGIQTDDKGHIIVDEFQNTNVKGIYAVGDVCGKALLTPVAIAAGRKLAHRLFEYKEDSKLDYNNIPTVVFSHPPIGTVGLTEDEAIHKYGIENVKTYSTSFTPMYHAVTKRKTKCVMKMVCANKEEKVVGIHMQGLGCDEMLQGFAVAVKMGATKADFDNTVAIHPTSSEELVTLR
Procedure: as §1, §2
To identify false positive compounds that interfere with the primary assay through inhibition of GR, ‘hits’ from the primary screening were run against a GR counter assay to identify this possible off-target inhibition (Fig. 1C). Briefly, 3 μL enzyme mixture (100 nM GR, 0.01% BSA in TES buffer) was dispensed into columns […] of a 1536-well black medium-binding solid-bottom plates. The no-enzyme control (0.01% BSA in TES buffer) was included in column 1 and 2. Compounds and controls (23 nL) were added to each well with a pin tool (Kalypsys), and the plates were incubated for 30 min before 2 μL of substrate mixture (1 mM GSSG 0.4 mM NADPH in TES buffer) was added to each well and absorbance at 340 nm was measured at t = 0 and t = 20 min using a ViewLux Multimodal detector (PerkinElmer).
as §6, §7

[5] = target: T5, GPX1 (Homo sapiens, UniProt P07203); assay: GR-coupled GPX1 activity assay (NADPH fluorescence, CHP substrate); assay type: biochemical; settings: for inhibition of GPX1: Fig. 9 pan-selenoprotein inhibitors; for IC50: IC50 of resulting CRC, Table 2, read-out: IC50 GPx1
T5 construct: made in house; host or cells: E. coli
T5 sequence (P07203 1-203): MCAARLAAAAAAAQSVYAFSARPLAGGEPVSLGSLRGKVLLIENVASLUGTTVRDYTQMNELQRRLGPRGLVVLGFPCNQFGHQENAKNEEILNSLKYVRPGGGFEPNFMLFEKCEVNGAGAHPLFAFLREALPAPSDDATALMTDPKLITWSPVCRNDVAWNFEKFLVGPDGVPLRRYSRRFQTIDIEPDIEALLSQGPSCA
Procedure: as §1, §2, §3, §4, §5, §6, §7

[6] = target: T5, GPX1; assay: nanoDSF thermal stabilization, GPX1; assay type: binding; settings: for GSH Binding (ΔTm) GPx1; shift in nanoDSF melting temperature / Tm GPX1 (nanoDSF): first or only inflection point; for thermal stabilization of GPX1: nanoDSF
Procedure: Thermal stabilization of enzyme ± DMSO or ± compound was carried out in a Prometheus NT.48 instrument (NanoTemper Technologies) with an excitation wavelength of 280 nm. Intrinsic fluorescence at 330 nm and 350 nm was monitored while heating. Capillaries were filled with ∼10 μL of a solution of GPX1/4 (1 mg/mL), ± small molecule (100 μM) or DMSO, in TES buffer and placed into the instrument. The capillaries were subjected to a temperature range from 30 to 90 °C at a ramp rate of 2 °C/min. The ratio of the recorded emission intensities (350nm/330 nm) were plotted as a function of temperature. This ratio and first derivatives were calculated using the NanoTemper software and were plotted using GraphPad Prism.

[7] = 100 μM small molecule vs DMSO control

| IC50 [2] [µM] | GSH Binding (ΔTm) GPx1; shift in nanoDSF melting temperature [6, 7] | GSH Binding (ΔTm) GPx1; shift in nanoDSF melting temperature, second inflection point ([6]; 100 μM small molecule vs DMSO control, second inflection point) | Tm GPX1 (nanoDSF), second inflection point ([6]; 100 μM, DMSO control Tm 42.5°C) [°C] | Tm GPX1 (nanoDSF) ([6]; 100 μM, DMSO control Tm 42.5°C) [°C] | IC50 [5] [µM] | SMILES | inhibition of GPX4 [1] | inhibition of GPX2 [2] | inhibition of TXNRD1 [3] | inhibition of GR [4] | inhibition of GPX1 [5] | thermal stabilization of GPX1 [6] |
| --- | --- | --- | --- | --- | --- | --- | --- | --- | --- | --- | --- | --- |
| – | – | – | – | – | – | Cc1ccc(NC(=O)N2CCN(c3nc(N)nc4sc(-c5cccnc5)nc34)CC2)cc1 [PI4KIII beta inhibitor 3] | inhibited all tested selenoproteins | inhibited all tested selenoproteins | inhibited all tested selenoproteins | not GR | inhibited all tested selenoproteins | – |
| 4.7 | +6.3 °C | +12.8 °C | 55.3 | 48.8 | 5.7 | O=C(N[C@H]1CCS[C@H]2CCC[C@@H](C(=O)O)N2C1=O)[C@@H](S)Cc1ccccc1 [Omapatrilat] | – | – | – | – | – | significant shifts in the melting temperature of GPX1 |
| – | – | – | – | – | – | CO[C@@]1(NC(=O)C2SC(=C(C(N)=O)C(=O)O)S2)C(=O)N2C(C(=O)O)=C(CSc3nnnn3C)CS[C@@H]21 (some centres unmarked) [cefotetan sodium] | inhibited all tested selenoproteins | inhibited all tested selenoproteins | inhibited all tested selenoproteins | not GR | inhibited all tested selenoproteins | – |
| – | – | – | – | – | – | CC(OC(=O)OC1CCCCC1)OC(=O)C1=C(CSc2nnnn2CCN(C)C)CS[C@@H]2[C@H](NC(=O)Cc3csc(N)n3)C(=O)N12 (some centres unmarked) [SCE-2174] | inhibited all tested selenoproteins | inhibited all tested selenoproteins | inhibited all tested selenoproteins | not GR | inhibited all tested selenoproteins | – |
| 7.7 | +7.5 °C | – | – | 50.0 | 8.9 | COc1ccc2[nH]c([S+]([O-])Cc3ncc(C)c(OC)c3C)nc2n1 (centres unmarked) [Tenatoprazole] | – | – | – | – | – | significant shifts in the melting temperature of GPX1 |
| > 20 | +0.4 °C | – | – | 42.9 | 9.3 | CO[C@@]1(NC(=O)Cc2cccs2)C(=O)N2C(C(=O)O)=C(COC(N)=O)CS[C@@H]21 [Cefoxitin sodium salt] | – | – | – | – | – | did not show any thermal stabilization |
| 10 | -0.2 °C | – | – | 42.3 | 18.5 | Nc1nc(/C(=C/CC(=O)O)C(=O)N[C@@H]2C(=O)N3C(C(=O)O)=CCS[C@H]23)cs1 [Ceftibuten] | – | – | – | – | – | did not show any thermal stabilization |
| 2.3 | -0.9 °C | – | – | 41.6 | 5.2 | O=C(O)C(S)C(S)C(=O)O (centres unmarked) [2,3-Dimercaptosuccinic acid] | – | – | – | – | – | – |

Source: article PMC10220285, “Development of an assay pipeline for the discovery of novel small molecule inhibitors of human glutathione peroxidases GPX1 and GPX4” (Redox Biology, 2023)
